The assay concerns the target T1, human V1a receptor (Homo sapiens, UniProt P37288).
T1 construct: host or cells: CHO cells
Put plainly: Human vasopressin V1a receptor binding assay. As to conditions: hV1a CHO cell line, competition with 1 nM 3H-AVP; for IC50: read-out: V1a Binding Affinity IC50; for Ki: read-out: V1a Ki. As for the experimental part:
EXAMPLE. Human vasopressin V1a receptor binding assay. A cell line expressing the human V1a receptor in CHO cells (henceforth referred to as the hV1a cell line) was obtained from Dr. Michael Brownstein, NIMH, Bethesda, Md., USA. The hV1a cDNA sequence is described by Thibonnier et al., Journal of Biological Chemistry, 269, 3304-3310 (1994), and the expression method was the same as described by Morel et al. (1992). The hV1a cell line was grown in alpha-MEM with 10% fetal bovine serum and 250 ug/ml G418 (Gibco, Grand Island, N.Y., USA). For competitive binding assay, hV1a cells were plated into 6-well culture plate at 1:10 dilution from a confluency flask, and maintained in culture for at least two days. Culture medium was then removed, cells were washed with 2 ml binding buffer (25 mM Hepes, 0.25% BSA, 1×DMEM, PH=7.0). To each well, 990 μl binding buffer containing 1 nM 3H-AVP was added, and followed by 10 μl series diluted Example compounds dissolved in DMSO. […] 100 nM cold AVP (Sigma) was used to assess non-specific binding. Cells were incubated for 45 minutes at 37° C., assay mixture was removed and each well was washed three times with PBS (pH=7.4). 1 ml 2% SDS was added per well and plates were let sit for 30 minutes. The whole content in a well was transferred to a scintillation vial. Each well was rinsed with 0.5 ml PBS which was then added to the corresponding vial. Scintillation fluid (Ecoscint, National Diagnostics, Atlanta, Ga.) was then added at 3 ml per vial. Samples were counted in a liquid scintillation counter (Beckman LS3801). IC50 values were calculated by Prism Curve fitting software.
All of the alkanedioic esters and amides exemplified in the foregoing examples dissolved in DMSO were tested in this assay. Binding curves were generated according to methods described by Thibonnier et al. (1994). [^3H]-AVP was added to the hV1a cell cultures followed by 10-fold dilutions of each test compound.

T1 sequence (P37288 whole entry): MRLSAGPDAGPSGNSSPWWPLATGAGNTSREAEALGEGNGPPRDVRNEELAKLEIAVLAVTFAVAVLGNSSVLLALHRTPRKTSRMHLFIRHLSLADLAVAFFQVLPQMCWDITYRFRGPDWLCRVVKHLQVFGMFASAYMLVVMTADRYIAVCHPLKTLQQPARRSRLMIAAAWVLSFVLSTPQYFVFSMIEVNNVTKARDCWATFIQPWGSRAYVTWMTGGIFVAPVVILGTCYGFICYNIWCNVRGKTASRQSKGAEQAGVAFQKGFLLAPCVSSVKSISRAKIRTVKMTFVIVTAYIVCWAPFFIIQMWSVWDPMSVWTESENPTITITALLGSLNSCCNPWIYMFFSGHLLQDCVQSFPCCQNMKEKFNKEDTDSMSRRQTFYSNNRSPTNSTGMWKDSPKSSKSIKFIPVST

Regarding `O=C(NCc1cccc(Cl)c1Cl)C(CCC(=O)N1CCN(C2CCCCC2)CC1)N1C(=O)C(N2C(=O)OCC2c2ccccc2)C1C=Cc1ccccc1` (stereo not drawn) [Example 176], the IC50 stood at 0.61 nM and the Ki stood at 0.38 nM.

Turning to `O=C(NCc1cc(F)cc(C(F)(F)F)c1)C(CCC(=O)N1CCN(C2CCCCC2)CC1)N1C(=O)C(N2C(=O)OCC2c2ccccc2)C1C=Cc1ccccc1` (stereo not drawn) [Example 179], the half-maximal inhibitory concentration (IC50) is 0.81 nM and the inhibitory constant (Ki) turned out to be 0.51 nM.

`O=C(NC1(c2ccccc2)CC1)C(CCC(=O)N1CCN(C2CCCCC2)CC1)N1C(=O)C(N2C(=O)OCC2c2ccccc2)C1C=Cc1ccccc1` (stereo not drawn) [Example 207]: the concentration for half-maximal inhibition (IC50) was 4.48 nM and the Ki stood at 2.74 nM.

Turning to `CN(Cc1cccc(C(F)(F)F)c1)C(=O)C(CC(=O)N1CCC(N2CCCCC2)CC1)N1C(=O)C(N2C(=O)OCC2c2ccccc2)C1C=Cc1cccc(Cl)c1` (stereo not drawn) [Example 247], the IC50 came to 0.6 nM and the Ki is 0.39 nM.

`O=C(NCCc1ccccc1)C(CCC(=O)N1CCN(C2CCCCC2)CC1)N1C(=O)C(N2C(=O)OCC2c2ccccc2)C1C=Cc1ccccc1` (stereo not drawn) [Example 200]: the half-maximal inhibitory concentration (IC50) amounted to 5.08 nM and the Ki was found to be 3.11 nM.

As to `Cc1ccc(CNC(=O)C(CCC(=O)N2CCN(C3CCCCC3)CC2)N2C(=O)C(N3C(=O)OCC3c3ccccc3)C2C=Cc2ccccc2)o1` (stereo not drawn) [Example 212], the IC50 came out at 0.95 nM and the Ki amounted to 0.58 nM.

In the case of `O=C(NCc1cc(C(F)(F)F)cc(C(F)(F)F)c1)C(CCC(=O)N1CCN(C2CCCCC2)CC1)N1C(=O)C(N2C(=O)OCC2c2ccccc2)C1C=Cc1ccccc1` (stereo not drawn) [Example 188], the IC50 is 7.26 nM and the Ki turned out to be 4.45 nM.

With `CC(NC(=O)C(CC(=O)N1CCC(N2CCCCC2)CC1)N1C(=O)C(N2C(=O)OCC2c2ccccc2)C1CCc1cccc([N+](=O)[O-])c1)c1ccccc1` (stereo not drawn) [Example 597], the IC50 worked out at 6.2 nM and the Ki turned out to be 3.8 nM.

Consider `CCN1CCN(C(=O)CCC(C(=O)NC2(c3ccccc3)CCCC2)N2C(=O)C(N3C(=O)OCC3c3ccccc3)C2C=Cc2ccccc2)CC1` (stereo not drawn) [Example 239], for which the IC50 was 6.6 nM and the inhibition constant (Ki) amounted to 4 nM.

Regarding `C[C@@H](NC(=O)[C@H](CCC(=O)N1CCN(C2CCCCC2)CC1)N1C(=O)[C@@H](N2C(=O)OC[C@@H]2c2ccccc2)[C@H]1/C=C/c1ccccc1)c1cccc(C(F)(F)F)c1` [Example 221F], the IC50 turned out to be 1.7 nM and the Ki came to 1.04 nM.

In the case of `O=C(NC1(c2ccccc2)CCCC1)C(CCC(=O)N1CCN(C2CCCCC2)CC1)N1C(=O)C(N2C(=O)OCC2c2ccccc2)C1C=Cc1ccccc1` (stereo not drawn) [Example 217], the IC50 came to 3.17 nM and the inhibition constant Ki worked out at 1.94 nM.

`CC(NC(=O)C(CCC(=O)N1CCN(C2CCCCC2)CC1)N1C(=O)C(N2C(=O)OCC2c2ccccc2)C1C=Cc1ccccc1)c1ccccc1` (stereo not drawn) [Example 206]: the IC50 came to 1.58 nM and the Ki is 0.97 nM.

Regarding `O=C(NCc1cccc(C(F)(F)F)c1)[C@H](CCC(=O)N1CCN(N2CCCC2)CC1)N1C(=O)[C@@H](N2C(=O)OC[C@@H]2c2ccccc2)[C@H]1/C=C/c1ccccc1` [Example 91], the IC50 worked out at 3.24 nM and the inhibitory constant (Ki) was determined as 1.99 nM.

As for `O=C(NC(c1ccccc1)C(F)(F)F)C(CC(=O)N1CCC(N2CCCCC2)CC1)N1C(=O)C(N2C(=O)OCC2c2ccccc2)C1CCc1ccccc1` (stereo not drawn) [Example 626], the inhibitory constant (Ki) worked out at 0.27 nM.

For the compound `O=C(NCc1cccc(C(F)(F)F)c1)[C@H](CC(=O)N1CCN(C2CCCCC2)CC1)N1C(=O)[C@@H](N2C(=O)OC[C@@H]2c2ccccc2)[C@H]1/C=C/c1ccccc1` [Example 66], the IC50 worked out at 50 nM.

Take `CC(NC(=O)C(CC(=O)N1CCC(N2CCCCC2)CC1)N1C(=O)C(N2C(=O)OCC2c2ccccc2)C1CCc1cccc(Cl)c1)c1ccccc1` (stereo not drawn) [Example 559]: the IC50 amounted to 0.12 nM and the Ki worked out at 0.073 nM.

In the case of `CC(NC(=O)C(CC(=O)N1CCC(N2CCCCC2)CC1)N1C(=O)C(N2C(=O)OCC2c2ccccc2)C1CCc1cccc(N)c1)c1ccccc1` (stereo not drawn) [Example 600], the concentration for half-maximal inhibition (IC50) was 14.4 nM and the Ki is 8.8 nM.

Regarding `CCN1CCCC1CNC(=O)CCC(C(=O)NC1CCCc2ccccc21)N1C(=O)C(N2C(=O)OCC2c2ccccc2)C1C=Cc1ccccc1` (stereo not drawn) [Example 221AI], the IC50 is around 50 nM.

On to `CN(Cc1cccc(C(F)(F)F)c1)C(=O)C(CCC(=O)N1CCN(C2CCCCC2)CC1)N1C(=O)C(N2C(=O)OCC2c2ccccc2)C1C=Cc1ccccc1` (stereo not drawn) [Example 205], for which the IC50 stood at 0.34 nM and the Ki was 0.21 nM.

As for `O=C(NC1CCCc2ccccc21)C(CCC(=O)N1CCN(C2CCCCC2)CC1)N1C(=O)C(N2C(=O)OCC2c2ccccc2)C1C=Cc1ccccc1Cl` (stereo not drawn) [Example 250], the IC50 is 6.5 nM and the Ki was determined as 4 nM.

As for `CC(NC(=O)C(CC(=O)N1CCC(N2CCCCC2)CC1)N1C(=O)C(N2C(=O)OCC2c2ccccc2)C1CCc1ccc(O)cc1)c1ccccc1` (stereo not drawn) [Example 594], the Ki turned out to be 19 nM.

For `O=C(CCC(C(=O)NCc1cccc(C(F)(F)F)c1)N1C(=O)C(N2C(=O)OCC2c2ccccc2)C1C=Cc1ccccc1)NCCN1CCCCC1` (stereo not drawn) [Example 87], the IC50 was determined as 15 nM.

For the compound `O=C(NCc1cccc(Cl)c1)C(CCC(=O)N1CCN(C2CCCCC2)CC1)N1C(=O)C(N2C(=O)OCC2c2ccccc2)C1C=Cc1ccccc1` (stereo not drawn) [Example 187], the IC50 stood at 1 nM and the Ki is 0.66 nM.

On to `O=C(NC1Cc2ccccc2C1)C(CCC(=O)N1CCN(C2CCCCC2)CC1)N1C(=O)C(N2C(=O)OCC2c2ccccc2)C1C=Cc1ccccc1` (stereo not drawn) [Example 221P], for which the IC50 stood at 1.7 nM and the Ki is 1.1 nM.

As to `O=C(NCc1ccco1)C(CCC(=O)N1CCN(C2CCCCC2)CC1)N1C(=O)C(N2C(=O)OCC2c2ccccc2)C1C=Cc1ccccc1` (stereo not drawn) [Example 211], the IC50 stood at 5.37 nM and the Ki stood at 3.29 nM.

Consider `O=C(C(COCc1ccccc1)N1C(=O)C(N2C(=O)OCC2c2ccccc2)C1C=Cc1ccccc1)N1CCC(CN2CCCCC2)CC1` (stereo not drawn) [Example 232E], for which the IC50 was found to be 0.28 nM and the Ki was 0.17 nM.

As to `O=C(NCc1cc(C(F)(F)F)ccc1F)C(CCC(=O)N1CCN(C2CCCCC2)CC1)N1C(=O)C(N2C(=O)OCC2c2ccccc2)C1C=Cc1ccccc1` (stereo not drawn) [Example 177], the IC50 turned out to be 0.67 nM and the Ki is 0.41 nM.

`CC(NC(=O)C(CC(=O)N1CCC(N2CCCCC2)CC1)N1C(=O)C(N2C(=O)OCC2c2ccccc2)C1CCc1cccc(Br)c1)c1ccccc1` (stereo not drawn) [Example 606]: the IC50 is 0.53 nM and the Ki was found to be 0.32 nM.

For the compound `O=C(NC1(c2ccccc2)CCCC1)C(CCC(=O)N1CCN(C2CCCCC2)CC1)N1C(=O)C(N2C(=O)OCC2c2ccccc2)C1C=Cc1cccc(Cl)c1` (stereo not drawn) [Example 244], the concentration for half-maximal inhibition (IC50) was determined as 3.4 nM and the inhibitory constant (Ki) was 2.1 nM.

`COc1cc(CNC(=O)C(CCC(=O)N2CCN(C3CCCCC3)CC2)N2C(=O)C(N3C(=O)OCC3c3ccccc3)C2C=Cc2ccccc2)cc(OC)c1` (stereo not drawn) [Example 201]: the IC50 came out at 10.5 nM and the Ki was determined as 6.43 nM.

For `COc1cc(OC)cc(C(C)(C)NC(=O)C(CCC(=O)N2CCN(C3CCCCC3)CC2)N2C(=O)C(N3C(=O)OCC3c3ccccc3)C2C=Cc2ccccc2)c1` (stereo not drawn) [Example 218], the IC50 was determined as 7.7 nM and the Ki was 4.7 nM.

For `O=C(NCc1cccc(Br)c1)C(CCC(=O)N1CCN(C2CCCCC2)CC1)N1C(=O)C(N2C(=O)OCC2c2ccccc2)C1C=Cc1ccccc1` (stereo not drawn) [Example 190], the IC50 is 0.88 nM and the Ki is 0.54 nM.

As for `CC(NC(=O)C(CC(=O)N1CCC(N2CCCCC2)CC1)N1C(=O)C(N2C(=O)OCC2c2cccc(Cl)c2)C1C=Cc1ccccc1)c1ccccc1` (stereo not drawn) [Example 256], the IC50 turned out to be 2.8 nM and the inhibition constant (Ki) was found to be 1.7 nM.

On to `O=C(NC1CCCc2ccccc21)C(CCC(=O)N1CCN(C2CCCCC2)CC1)N1C(=O)C(N2C(=O)OCC2c2ccccc2)C1C=Cc1cccc([N+](=O)[O-])c1` (stereo not drawn) [Example 249], for which the IC50 was found to be 1.7 nM and the Ki was determined as 1 nM.

On to `O=C(NCc1cccc(C(F)(F)F)c1)C(CC(=O)N1CCN(N2CCCC2)CC1)N1C(=O)C(N2C(=O)OCC2c2ccccc2)C1C=Cc1ccccc1` (stereo not drawn) [Example 134B], for which the IC50 worked out at 44.8 nM and the Ki came to 27.5 nM.

On to `Cc1cccc(CCC2C(N3C(=O)OCC3c3ccccc3)C(=O)N2C(CC(=O)N2CCC(N3CCCCC3)CC2)C(=O)NC(C)c2ccccc2)c1` (stereo not drawn) [Example 778], for which the Ki turned out to be 0.63 nM.

`O=C(NCc1cc(Cl)ccc1Cl)C(CCC(=O)N1CCN(C2CCCCC2)CC1)N1C(=O)C(N2C(=O)OCC2c2ccccc2)C1C=Cc1ccccc1` (stereo not drawn) [Example 175]: the IC50 was found to be 4.56 nM and the inhibitory constant (Ki) amounted to 2.79 nM.

Regarding `Cc1ccccc1C(C)(C)NC(=O)C(CCC(=O)N1CCN(C2CCCCC2)CC1)N1C(=O)C(N2C(=O)OCC2c2ccccc2)C1C=Cc1ccccc1` (stereo not drawn) [Example 221], the IC50 was found to be 5.1 nM.

In general, IC50 refers to the concentration that inhibits the measured activity by half. Broadly, the Ki is a measure of affinity in units of concentration, obtained from inhibition or displacement.

The values above are taken from patent US11628160B2, “Compositions and methods for treating brain injury” (Azevan Pharmaceuticals, Inc., priority 2017, dated 2023).
